Tests used:
bacteria = settings: cited from earlier work
RAW 264.7 macrophages = experiment: NO production in RAW 264.7 macrophages stimulated with LPS or other microbial products (Griess reaction); format: cell-based, mouse; settings: LPS from E. coli or P. aeruginosa; peptide at indicated concentrations (FIG. 41C)
Protocol: Effects of various microbial products on macrophages in vitro and anti-inflammatory effects by various peptides of HCII and TFPI. 3.5×10^5 cells were seeded in 96-well tissue culture plates (Nunc, 167008) in phenol red-free DMEM (Gibco) supplemented with 10% FBS and antibiotics. Following 6 hours of incubation to permit adherence, cells were stimulated with 10 ng/mL E. coli (0111:B4) LPS (Sigma), lipoteichoic acid, peptioglycan, or zymosan, with and without peptides at the indicated doses (se figure legends and figures). The levels of NO in culture supernatants were determined after 24 hours from stimulation using the Griess reaction. Briefly, nitrite, a stable product of NO degradation, was measured by mixing 50 μl of culture supernatants with the same volume of Griess reagent (Sigma, G4410) and reading absorbance at 550 nm after 15 min. Phenol-red free DMEM with FBS and antibiotics were used as a blank. A standard curve was prepared using 0-80 μM sodium nitrite solutions in ddH20.
LPS effects on macrophages in vitro—[…] cells were seeded in 96-well tissue culture plates (Nunc, 167008) in phenol red-free DMEM (Gibco) supplemented with 10% FBS containing 1% Anti-Anti (Invitrogen). Following 20 hours of incubation to permit adherence, cells were washed and stimulated with 10 ng/ml E. coli (0111:B4) or P. aeruginosa LPS (Sigma), with and without the peptides GGL27, GGL27(S), and DSE25 of various doses. The levels of NO in culture supernatants were determined after 24 hours from stimulation using the Griess reaction (27). Briefly, nitrite, a stable product of NO degradation, was measured by mixing 50 μl of culture supernatants with the same volume of Griess reagent (Sigma, G4410) and reading absorbance at 550 nm after 15 min. Phenol-red free DMEM with FBS and antibiotics were used as a blank. A standard curve was prepared using 0-80 μM sodium nitrite solutions in ddH20.

[1] = system: E. coli LPS shock in C57BL/6 mice; experiment: LPS model in vivo (LPS-induced shock): survival, cytokines, lungs; parameters: species or system mouse; settings: for overall (proinflammatory) cytokine release: 20 h after LPS injection, peptide 500 μg; for survival: E. coli LPS i.p., peptide 500 μg i.p. 30 minutes after, followed 7 days
Protocol: Histochemistry—For immunostaining, wound biopsies were fixed in 10% formalin, rehydrated and embedded in paraffin. Sections of 5 μm thickness were placed on poly-lysine coated glass slides, deparaffinized in xylene and rehydrated in graded alcohols. The slides were then treated with Dako antigen retrieval solution (Dako) for 40 min at 97° C., and incubated for 24 h at room temperature in a 1:50 dilution of polyclonal antibodies against TFPI (Sigma-Aldrich, in TBS with 1% BSA, 5% goat serum, 0.05% Tween 20). After three 20 min washes in TBS with 0.05% Tween 20, the sections were incubated with alkaline phosphatase conjugated secondary goat anti-rabbit IgG (Dako) diluted 1:1000 in the same buffer as the primary antibody and incubated for another 24 hours, followed by three 20 min washes. Sections were developed with Vulcan Fast Red chromogen (Biocare Medical, Concord, Calif.) and the slides were counterstained with Harris Hematoxylin (EM Science, Gibbstown, N.J.). For histological evaluation of lungs derived from the in vivo LPS-models in mice, tissues were embedded as above, sectioned and stained with hematoxylin and eosin by routine procedures (Histocenter, Gothenburg, Sweden).
LPS model in vivo—Male C57BL/6 mice (8-10 weeks, 22+/−5 g), were injected intraperitoneally with 18 mg E. coli 0111:B4 LPS (Sigma) per kg of body weight. Thirty minutes after LPS injection, 0.5 mg GGL27, GGL27(S), DSE25 or buffer alone was injected intraperitoneally into the mice. Survival and status was followed during seven days. For blood collection and histochemistry, mice were sacrificed 20 h after LPS challenge, and lungs were removed and fixed. These experiments were approved by the Laboratory Animal Ethics Committee of Malmo/Lund.
Cytokine assay—The cytokines IL-6, IL-10, MCP-1, INF-γ, and TNF-α were measured in plasma from mice subjected to LPS (with or without peptide treatment) using the Cytometric bead array; mouse inflammation kit (Becton Dickinson AB) according to the manufacturer's instructions.

[2] = system: Escherichia coli, Pseudomonas aeruginosa, Bacillus subtilis, Staphylococcus aureus, Candida albicans, Candida parapsilosis; experiment: Radial diffusion assay (RDA); format: cell-based; settings: peptide at 100 μM, 6 μl per well; 18-24 h at 37° C.
Protocol: Radial diffusion assay. Essentially as described earlier, bacteria were grown to mid-logarithmic phase in 10 ml of full-strength (3% w/v) trypticase soy broth (TSB) (Becton-Dickinson). The microorganisms were then washed once with 10 mM Tris, pH 7.4. Subsequently, 4×10^6 cfu were added to 15 ml of the underlay agarose gel, consisting of 0.03% (w/v) TSB, 1% (w/v) low electroendosmosis type (EEO) agarose (Sigma-Aldrich) and 0.02% (v/v) Tween 20 (Sigma-Aldrich). The underlay was poured into a Ø 144 mm petri dish. After agarose solidification, 4 mm-diameter wells were punched and 6 μl peptide solution of required concentration added to each well. Plates were incubated at 37° C. for 3 h to allow peptide diffusion. The underlay gel was then covered with 15 ml of molten overlay (6% TSB and 1% Low-EEO agarose in distilled H2O). Antimicrobial activity of a peptide was visualized as a zone of clearing around each well after 18-24 h of incubation at 37° C.
Radial diffusion assay—Essentially as described earlier (23, 24), bacteria were grown to mid-logarithmic phase in 10 ml of full-strength (3% w/v) trypticase soy broth (TSB) (Becton-Dickinson). The microorganisms were then washed once with 10 mM Tris, pH 7.4. […]

[3] = biological target: C3a (complement anaphylatoxin C3a peptides in chronic wound fibrin slough) (human) (UniProt P01024); experiment: double immunogold electron microscopy (C3a 10 nm, C-termini of TFPI 20 nm), evaluation of 50 bacterial profiles in wound fibrin slough
C3a (complement anaphylatoxin C3a peptides in chronic wound fibrin slough) (human), sequence (P01024 672-748): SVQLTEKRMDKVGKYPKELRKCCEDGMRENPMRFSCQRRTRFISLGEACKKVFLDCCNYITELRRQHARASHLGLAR

For “GKRKKKGKGLGKKRDPCLRKYK (Heparin-binding growth factor derived peptide) [GKR22]”, the “antibacterial activity at physiological conditions” value (bacteria) is listed as “retain their antibacterial activity at physiological conditions”.

In the case of “GGLISTSSSSSSQRVKIAYEEIFVKNM (GGL27(S) control peptide) [control peptide, central K/R residues of GGL27 replaced by S, reference compound]”, the “LPS-mediated NO release” value (RAW 264.7 macrophages) is reported as “did neither block NO release”, the “overall (proinflammatory) cytokine release” value [1] is reported as “nor significantly alter overall cytokine release” and the survival [1] is reported as “nor significantly alter overall cytokine release, as well as survival”. The “antimicrobial activity (zones of clearance)” value [2] was “no antimicrobial effects”.

With “DSEEDEEHTIITDTELPPLKLMHSF (DSE25 control peptide) [control peptide from the N-terminus of TFPI, reference compound]” the “LPS-mediated NO release” value (RAW 264.7 macrophages) was “did neither block NO release”, the “overall (proinflammatory) cytokine release” value [1] was “nor significantly alter overall cytokine release” and the survival [1] was “nor significantly alter overall cytokine release, as well as survival”. For the same substance, the “antimicrobial activity (zones of clearance)” value [2] was “no antimicrobial effects”.

Work on “C-terminal TFPI peptides (endogenous C-terminal fragments of tissue factor pathway inhibitor found in human chronic wound fibrin slough) (from UniProt P10646 268-304)” yielded a percent of TFPI-molecules associated with C3a [3] of 70%.

For “HKHGHGHGKHKNKGKKNGKH (A kininogen-derived antimicrobial peptide) [HKH20]”, the “antibacterial activity at physiological conditions” value (bacteria) is given as “retain their antibacterial activity at physiological conditions”.

Reference: patent US20120189673A1, “POLYPEPTIDES AND USES THEREOF” (priority 2009, published 2012)
